Results: patent US20250230147A1, “LACTAMS AS CBL-B INHIBITORS” (Genentech, Inc., priority 2021, published 2025)
Counter-ions that a name gives are not always drawn.

Legend:
Cbl-b = Cbl-b (Homo sapiens (Human), UniProt Q13191); assay: Cbl-b LCK Ub TR-FRET assay (Cbl-b Lck HTRF); assay type: biochemical
Procedure, shortened: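 Biotin-Cbl-b preincubated with compound (10-point 3-fold series) 60 min, then His-LCK with 1 mM ATP (2× mixture) added for 90 min at room temperature. Ubiquitination detected by TR-FRET using HA-ubiquitin/UBE2D2 adduct, anti-HA-D2 and streptavidin-Eu; IC50 normalised to no-LCK and DMSO controls.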

c-Cbl = c-Cbl (Homo sapiens (Human), UniProt P22681); assay: C-Cbl LCK Ub TR-FRET assay (c-cbl Lck HTRF); assay type: biochemical; settings: for (fold-selectivity): C-cbl Lck HTRF IC50 relative to Cbl-b Lck HTRF IC50
Procedure, shortened: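 Signal is read once the detection mix has stood 20 min at ambient temperature. Curves are anchored by DMSO as maximum and by omission of LCK as minimum.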

c-Cbl, sequence (P22681 47-435): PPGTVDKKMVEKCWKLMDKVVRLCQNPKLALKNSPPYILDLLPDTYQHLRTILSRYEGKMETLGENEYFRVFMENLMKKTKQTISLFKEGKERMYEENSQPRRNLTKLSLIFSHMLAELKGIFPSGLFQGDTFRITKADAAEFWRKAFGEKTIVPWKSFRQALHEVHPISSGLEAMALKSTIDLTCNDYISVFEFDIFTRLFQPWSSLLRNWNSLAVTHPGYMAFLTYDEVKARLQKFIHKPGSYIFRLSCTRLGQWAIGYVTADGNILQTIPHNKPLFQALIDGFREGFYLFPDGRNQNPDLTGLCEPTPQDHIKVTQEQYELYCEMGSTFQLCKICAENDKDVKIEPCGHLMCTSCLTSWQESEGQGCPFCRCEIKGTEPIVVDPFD
Cbl-b, sequence (Q13191 40-426): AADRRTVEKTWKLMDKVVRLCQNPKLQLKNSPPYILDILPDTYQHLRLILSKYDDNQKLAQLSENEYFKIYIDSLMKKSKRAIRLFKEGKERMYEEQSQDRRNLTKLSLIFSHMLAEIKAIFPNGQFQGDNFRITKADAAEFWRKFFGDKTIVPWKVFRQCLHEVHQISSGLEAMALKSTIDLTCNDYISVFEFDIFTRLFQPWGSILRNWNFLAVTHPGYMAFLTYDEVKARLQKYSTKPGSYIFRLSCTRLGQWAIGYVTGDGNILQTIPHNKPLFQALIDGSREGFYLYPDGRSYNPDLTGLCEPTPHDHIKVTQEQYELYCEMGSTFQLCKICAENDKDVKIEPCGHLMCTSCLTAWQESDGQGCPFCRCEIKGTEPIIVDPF

| Structure (SMILES) | IC50 (Cbl-b) [nM] | IC50 (c-Cbl) [nM] | (fold-selectivity) (c-Cbl) |
| --- | --- | --- | --- |
| Cn1cnnc1[C@H](F)C1(c2cccc(N3Cc4c(cc(CNC5CCC5)cc4C(F)(F)F)C3=O)c2)COC1 [Compound 227, (R)-6-((Cyclobutylamino)methyl)-2-(3-(3-(fluoro(4-methyl-4H-1,2,4-triazol-3-yl)methyl)oxetan-3-yl)phenyl)-4-(trifluoromethyl)isoindolin-1-one formate] | 16 | 13 | – |
| CC(C)[C@@H]1CN(Cc2cc3c(c(C(F)(F)F)c2)CN(c2cccc(C4([C@@H](F)c5nncn5C)COC4)c2)C3=O)CCN1C [Compound 406, 2-(3-(3-((R)-fluoro(4-methyl-4H-1,2,4-triazol-3-yl)methyl)oxetan-3-yl)phenyl)-6-(((R)-3-isopropyl-4-methylpiperazin-1-yl)methyl)-4-(trifluoromethyl)isoindolin-1-one] | 75 | 84 | (1.1x) |
| CCCC1(O)CN(Cc2cc3c(c(C(F)(F)F)c2)CN(c2cccc(C4([C@H](F)c5nncn5C)COC4)c2)C3=O)C1 [Compound 172, (S)-2-(3-(3-(fluoro(4-methyl-4H-1,2,4-triazol-3-yl)methyl)oxetan-3-yl)phenyl)-6-((3-hydroxy-3-propylazetidin-1-yl)methyl)-4-(trifluoromethyl)isoindolin-1-one] | 180 | 520 | 2.9x |
| CC(C)[C@H]1CN(C)CCN1Cc1cc2c(c(C(F)(F)F)c1)CN(c1cccc(C3([C@@H](F)c4nc(F)cn4C)COC3)c1)C2=O [Compound 269, 2-(3-(3-((R)-fluoro(4-fluoro-1-methyl-1H-imidazol-2-yl)methyl)oxetan-3-yl)phenyl)-6-(((S)-2-isopropyl-4-methylpiperazin-1-yl)methyl)-4-(trifluoromethyl)isoindolin-1-one] | 210 | 470 | (2.3x) |
| CN1CC(Cc2cc3c(c(C(F)(F)F)c2)CN(c2cccc(C4(Cc5nncn5C)CC(F)(F)C4)c2)C3=O)C1 [Compound 442, 2-(3-(3,3-difluoro-1-((4-methyl-4H-1,2,4-triazol-3-yl)methyl)cyclobutyl)phenyl)-6-((1-methylazetidin-3-yl)methyl)-4-(trifluoromethyl)isoindolin-1-one formate] | 96 | 64 | – |
| Cn1cnnc1[C@@H](F)C1(c2cccc(N3Cc4c(cc(CN5CC(C)(C)C5)cc4C(F)(F)F)C3=O)c2)COC1 [Compound 73, (S)-6-((3,3-dimethylazetidin-1-yl)methyl)-2-(3-(3-(fluoro(4-methyl-4H-1,2,4-triazol-3-yl)methyl)oxetan-3-yl)phenyl)-4-(trifluoromethyl)isoindolin-1-one] | 140 | 300 | 2.2x |
| CC(C)[C@@H]1CN(Cc2cc3c(c(C(F)(F)F)c2)CN(c2cccc(C4([C@H](F)c5nncn5C)COC4)c2)C3=O)CCN1 [Compound 93, 2-(3-(3-((S)-fluoro(4-methyl-4H-1,2,4-triazol-3-yl)methyl)oxetan-3-yl)phenyl)-6-(((R)-3-isopropylpiperazin-1-yl)methyl)-4-(trifluoromethyl)isoindolin-1-one] | 68 | 78 | 1.1x |
| Cn1cnnc1[C@H](F)C1(c2cccc(N3Cc4c(cc(CN5CC(S(C)(=O)=O)C5)cc4C(F)(F)F)C3=O)c2)COC1 [Compound 163, (R)-2-(3-(3-(fluoro(4-methyl-4H-1,2,4-triazol-3-yl)methyl)oxetan-3-yl)phenyl)-6-((3-(methylsulfonyl)azetidin-1-yl)methyl)-4-(trifluoromethyl)isoindolin-1-one] | 130 | 240 | 1.9x |
| Cn1cnnc1[C@H](F)C1(c2cccc(N3Cc4c(cc(CN5CCCC5)cc4C(F)(F)F)C3=O)c2)CC(F)(F)C1 [Compound 395, (R)-2-(3-(3,3-difluoro-1-(fluoro(4-methyl-4H-1,2,4-triazol-3-yl)methyl)cyclobutyl)phenyl)-6-(pyrrolidin-1-ylmethyl)-4-(trifluoromethyl)isoindolin-1-one] | 110 | 110 | (1.0x) |
| Cn1cnnc1C(F)(F)C1(c2cccc(N3Cc4c(cccc4C(F)(F)F)C3=O)c2)CC1 [Compound 49, 2-(3-(1-(difluoro(4-methyl-4H-1,2,4-triazol-3-yl)methyl)-cyclopropyl)phenyl)-4-(trifluoromethyl)isoindolin-1-one] | 1400 | 2800 | 2.0x |
| CN1CC2CC(C1)N2Cc1cc2c(c(C(F)(F)F)c1)CN(c1cccc(C3(Cc4nncn4C)CC(F)(F)C3)c1)C2=O [Compound 412, 2-(3-(3,3-difluoro-1-((4-methyl-4H-1,2,4-triazol-3-yl)methyl)cyclobutyl)phenyl)-6-((3-methyl-3,6-diazabicyclo[3.1.1]heptan-6-yl)methyl)-4-(trifluoromethyl)isoindolin-1-one] | 50 | 51 | (1.1x) |
| CC1CC(C)(NCc2cc3c(c(C(F)(F)F)c2)CN(c2cccc(C4(Cc5nncn5C)CC(F)(F)C4)c2)C3=O)C1 (centres unmarked) [Compound 353, 2-(3-(3,3-difluoro-1-((4-methyl-4H-1,2,4-triazol-3-yl)methyl)cyclobutyl)phenyl)-6-(((1,3-dimethylcyclobutyl)amino)methyl)-4-(trifluoromethyl)isoindolin-1-one formate] | 12 | 6.6 | – |
| CCNc1cc(C2(Cc3nncn3C)CC(F)(F)C2)cc(N2Cc3c(cc(CN4CCN(C)C[C@@H]4C(C)C)cc3C(F)(F)F)C2=O)n1 [Compound 236, (S)-2-(4-(3,3-difluoro-1-((4-methyl-4H-1,2,4-triazol-3-yl)methyl)-cyclobutyl)-6-(ethylamino)pyridin-2-yl)-6-((2-isopropyl-4-methylpiperazin-1-yl)methyl)-4-(trifluoromethyl)isoindolin-1-one formate] | 7.1 | 8 | – |
| C[C@@H](c1cc2c(c(C(F)(F)F)c1)CN(c1cccc(C3([C@@H](F)c4nncn4C)COC3)c1)C2=O)N1CC(C)(F)C1 [Compound 108, 2-(3-(3((R)-fluoro(4-methyl-4H-1,2,4-triazol-3-yl)methyl)oxetan-3-yl)phenyl)-6-((S)-1-(3-fluoro-3-methylazetidin-1-yl)ethyl)-4-(trifluoromethyl)isoindolin-1-one] | 83 | 160 | 2.0x |

The remaining lines, values ahead:

| IC50 (Cbl-b) [nM] | IC50 (c-Cbl) [nM] | (fold-selectivity) (c-Cbl) | Structure (SMILES) |
| --- | --- | --- | --- |
| 62 | 150 | 2.4x | Cn1cnnc1[C@H](F)C1(c2cccc(N3Cc4c(cc(CN5CC(C)(O)C5)cc4C(F)(F)F)C3=O)c2)CC(F)(F)C1 [Compound 51, (R)-2-(3-(3,3-difluoro-1-(fluoro(4-methyl-4H-1,2,4-triazol-3-yl)methyl)cyclobutyl)-phenyl)-6-((3-hydroxy-3-methylazetidin-1-yl)methyl)-4-(trifluoromethyl)isoindolin-1-one] |
| 13 | 11 | (0.84x) | Cn1cnnc1[C@H](F)C1(c2cccc(N3Cc4c(cc(CNC5(C)CCC5)cc4C(F)(F)F)C3=O)c2)COC1 [Compound 230, (R)-2-(3-(3-(fluoro(4-methyl-4H-1,2,4-triazol-3-yl)methyl)oxetan-3-yl)phenyl)-6-(((1-methylcyclobutyl)amino)methyl)-4-(trifluoromethyl)isoindolin-1-one] |
| 41 | 32 | (0.80x) | CC(C)[C@@H]1CN(Cc2cc3c(c(C(F)(F)F)c2)CN(c2cccc(C4(Cc5nncn5C)CC(F)(F)C4)c2)C3=O)CCN1C [Compound 438, (R)-2-(3-(3,3-difluoro-1-((4-methyl-4H-1,2,4-triazol-3-yl)methyl)cyclobutyl)phenyl)-6-((3-isopropyl-4-methylpiperazin-1-yl)methyl)-4-(trifluoromethyl)isoindolin-1-one] |
| 32 | 43 | (1.4x) | Cn1cnnc1C(F)(F)C1(c2cccc(N3Cc4c(cc(CNC5(C)CCC5)cc4C(F)(F)F)C3=O)c2)COC1 [Compound 287, 2-(3-(3-(difluoro(4-methyl-4H-1,2,4-triazol-3-yl)methyl)oxetan-3-yl)phenyl)-6-(((1-methylcyclobutyl)amino)methyl)-4-(trifluoromethyl)isoindolin-1-one] |
| 47 | 41 | (0.87x) | Cn1cnnc1CC1(c2cc(CCc3ccccc3)nc(N3Cc4c(cc(CNC5(C)CCC5)cc4C(F)(F)F)C3=O)c2)CCC1 [Compound 325, 2-(4-(1-((4-methyl-4H-1,2,4-triazol-3-yl)methyl)cyclobutyl)-6-phenethylpyridin-2-yl)-6-(((1-methylcyclobutyl)amino)methyl)-4-(trifluoromethyl)isoindolin-1-one] |
| 48 | 52 | 1.1x | C[C@@H]1CN(Cc2cc3c(c(C(F)(F)F)c2)CN(c2cccc(C4([C@@H](F)c5nncn5C)COC4)c2)C3=O)CCCO1 [Compound 119, 2-(3-(3((R)-fluoro(4-methyl-4H-1,2,4-triazol-3-yl)methyl)oxetan-3-yl)phenyl)-6-(((R)-2-methyl-1,4-oxazepan-4-yl)methyl)-4-(trifluoromethyl)isoindolin-1-one] |
| 13 | 9.6 | (0.75x) | Cn1cnnc1CC1(c2cccc(N3Cc4c(cc(CNCC(C)(C)C)cc4C(F)(F)F)C3=O)c2)CC(F)(F)C1 [Compound 363, 2-(3-(3,3-difluoro-1-((4-methyl-4H-1,2,4-triazol-3-yl)methyl)cyclobutyl)phenyl)-6-((neopentylamino)methyl)-4-(trifluoromethyl)isoindolin-1-one] |
